Here are results for two molecules from patent US6525098B1, “6-methoxy-2-naphthylacetic acid prodrugs” (Nobex Corporation, priority 1999, dated 2003).

One data set concerns rat paw edema. The data set can be described thus: rat paw edema. The class given is in vivo.
Data set [1] is described as follows: analysis of blood samples / plasma levels in rats after oral delivery. The class given is in vivo. The source says:
FIG. 1 is a graph of in plasma levels of Example 1 compared to Nabumetone.

The conditions of data set [2]: oral administration; cited from earlier work.

Usually melting point stands for the temperature, or range, at which the solid turns liquid. `COc1ccc2cc(CCO)ccc2c1` [Example 1, 2-(6-Methoxy-naphthalen-2-yl)-ethanol] had a melting point of 110 to 113 °C. Further, in the data set on rat paw edema, the “rat paw edema, % inhibition” value worked out at 67.5%. For the same molecule, the “plasma levels and onset compared to Nabumetone (FIG. 1)” value in data set [1] is given as “higher plasma levels, with more rapid onset”.
Take `COc1ccc2cc(CCC(C)=O)ccc2c1` [Nabumetone, nabumetone, reference compound]: the “fraction of orally administered nabumetone transferred in vivo into 6MNA” value in data set [2] is “about 35%”. For the same molecule, the “rat paw edema, % inhibition” value in the data set on rat paw edema is 60.0%.
